In test [1] the test system is MDA-MB-231 breast cancer cell line. The test is described as follows: Cytotoxic assay against MDA-MB-231 breast cancer cell line. It is filed as cell-based. As to conditions: Homo sapiens, MDA-MB-231; mean of three independent replicates ± SE; read-out: IC50 Value (μM) MDA-MB-231. As for the experimental part: The newly prepared Schiff bases 2–5g were screened for their in vitro cytotoxic activity against the MDA-MB-231 breast cancer cell line taking CA-4 as a reference drug. […] In addition, further structure extension to give N-aryl hydrazinyl molecules 4a–5g produced compounds with considerable cytotoxic activity, which may give an indication that the aryl ring is important for cytotoxic activity. […]
Cytotoxic activity of the prepared schiff bases against MDA-MB-231 breast cell Line was determined according previously reported methods. (See Supplementary Materials—Appendix SB).

For test [2], the system named is β-tubulin. The test is described as follows: Tubulin polymerization inhibitory activity, ELISA assay for β-tubulin. As to conditions: at IC50 (1.27 μM), compared with no treatment control. It is filed as cell-based, human. As for the experimental part: In addition, compound 4h was subjected to in vitro tubulin polymerization inhibitory activity assay using ELISA assay for β-tubulin.
(§1) Compound 4h was evaluated for their Tubulin inhibitory activity according to manufacturer’s instructions.
Background: In an ELISA, binding on a coated surface is turned into a signal by an enzyme label.

Test [3] has as its system normal breast cell line MCF-10A. Kind of test: Cytotoxic assay against normal breast cell line MCF-10A. The test is classed as cell-based. As to conditions: Homo sapiens, mean of three independent replicates ± SE, read-out: IC50 Value (μM) MCF-10A.
For test [4], the system named is mitochondrial membrane potential of MDA-MB-231 cells. Kind of test: Mitochondrial membrane potential by flow cytometry. It is filed as cell-based, human. The protocol: Most of the known anticancer molecules induce apoptotic cascade via activation of the intrinsic pathway via release of cytochrome-c after depolarization of mitochondrial membrane. The potential status of the mitochondrial membrane is determined by the electrochemical gradient (Δψ).
(§2) See Supplementary Materials—Appendix SB.
For orientation: Flow cytometry measures light scatter and fluorescence of single cells or particles in a stream.

Test [5] relates to MDA-MB-231 cells. Kind of test: Annexin V FITC/PI staining apoptosis assay. It is filed as cell-based, human. As for the experimental part: A double staining examination of annexin V FITC/propidium iodide (PI) was used to evaluate compound 4h’s influence on apoptosis and estimate the percentage of the total, early, and late apoptosis in MDA-MB-231 cells. […] Furthermore, the proportion of early and late apoptotic cells rose by 23.12- and 63.67-fold, respectively, as compared to the untreated control cells.
as §2

In test [6] the test system is tubulin. The test is described as follows: Tubulin polymerization inhibition by immunofluorescence analysis (confocal microscope). It is filed as cell-based, human. As to conditions: at its IC50 concentration, MDA-MB-231, compared with untreated cells. As for the experimental part: Several investigations have shown that TMP-containing compounds such as Col and CA-4 interact with tubulin at the colchicine binding site, inhibiting microtubule assembly. The effects of representative Schiff bases on the inhibition of tubulin assembly were evaluated. […] Tubulin polymerization inhibitory activity against the MDA-MB-231 cell line was investigated by immunofluorescence analysis using a confocal microscope.
as §1

The subject of test [7] is MDA-MB-231 cells. The test is described as follows: Cell cycle analysis (FACS, DNA flow cytometry). The test is classed as cell-based, human.
Text: For the purpose of studying the influence of these hydrazides on the cell cycle progression of MDA-MB-231 human malignant cell lines. A FACS analysis was used to determine the DNA proportion of cell nuclei.
as §2

Test [8] concerns four human cancer cell lines. Further details: method as in PMID 27149641. As to conditions: four human cancer cell lines ref 21; read-out: IC50 antiproliferative activity; cited from earlier work.
Test [9] relates to MCF-7 breast cancer cell line. Conditions: MCF-7 ref 26; cited from earlier work.
The test system of test [10] is tubulin. Further details: method as in PMID 32325332. Conditions: at its IC50 dose level ref 22; cited from earlier work.
Where [11] appears, read: compared to untreated control cells.

As a reminder, the IC50 is the concentration needed to halve the response being measured. With `COc1cc(/C=C(\NC(=O)c2cc(OC)c(OC)c(OC)c2)C(=O)N/N=C/c2cc(Br)c(O)c(Br)c2)cc(OC)c1OC` [Compound 4h, N-((Z)-3-((E)-2-(3,5-Dibromo-4-hydroxybenzylidene)hydrazinyl)-3-oxo-1-(3,4,5-trimethoxyphenyl)prop-1-en-2-yl)-3,4,5-trimethoxybenzamide], the half-inhibitory concentration (IC50) in [1] was 1.27 ± 0.18 µM. Further, the “percent inhibition of tubulin polymerization” value in [2] came out at 78.14%. For the same compound, the half-maximal inhibitory concentration (IC50) in [3] is 30.8 ± 2.32 µM. The “reduction in the level of MMPψ” value in test [4] (IC50 concentration, 24 h, in comparison with untreated cells) is 65.23%. In addition, the “decrease in the level of MMP” value in test [4] (compared to negative control cells) turned out to be 3 fold. Besides, the overall apoptosis in test [5] (24 h, no treatment control 1.63%) was 31.27%. Further, in test [5] (setting [11]), the “rise of early apoptotic cells” value came to 23.12 fold and the “rise of late apoptotic cells” value is 63.67 fold. Moreover, in [6], the “tubulin polymerization inhibition activity (immunofluorescence)” value is listed as “good tubulin polymerization inhibition activity”. Also, in test [7] (IC50 concentration, 24 h), the “%Pre-G1” value worked out at 31.27%. For the same compound, the “%DIP G2/M” value in test [7] (IC50 concentration, 24 h, untreated control 8.22%) is 38.65%. Also, the “cell cycle arrest at G2/M phase relative to control cells” value in test [7] (versus control MDA-MB-231 cells) is “fivefold”. In addition, the “increase in percentage of pre-G1 phase relative to negative control” value in test [7] (versus negative control cells) was around 19 fold.
Consider `COc1ccc2c(c1)NC(/C=C(\C)C(=O)c1cc(OC)c(OC)c(OC)c1)C2` (stereo not shown) [V], for which, in test [8], the concentration for half-maximal inhibition (IC50) was 0.003 to 0.009 µM.
For `COc1cc(C(=O)N/N=C/c2cc3ccccc3[nH]2)cc(OC)c1OC` [VII], the half-inhibitory concentration (IC50) in test [9] was 0.87 µM.
For the compound `COc1cc(C(=O)NNC(=O)c2ccc(NC(=O)CCl)cc2)cc(OC)c1OC` [VI], the “in vitro tubulin polymerization inhibition activity” value in test [10] is given as 83.1%.

Values taken from article PMC9230623, “Design, Synthesis, In Vitro Biological Activity Evaluation and Stabilized Nanostructured Lipid Carrier Formulation of Newly Synthesized Schiff Bases-Based TMP Moieties” (Pharmaceuticals, 2022).
